From EP4640678A1, “NOVEL OXO-PYRIDINE COMPOUND, PREPARATION METHOD THEREFOR, AND USE THEREOF” (Chengdu Shibeikang Biomedical Technology Co., Ltd., priority 2022, dated 2024)

What was measured:
[1] = Effect of continuous in-vivo administration on general condition and food intake of rats; conditions: for Food intake (g, mean±SD) / food intake compared with the blank group: 500 mg/kg PO once a day for 14 days, within 24 hours after the last administration
Text: Each group had 10 rats, equally distributed by gender. The rats received drug administrations via oral gavage once a day for 14 consecutive days, following the administration regimen outlined in the table below. The blank group was given an equal volume of a vehicle. […] Table 4 Continuous administration regimen

human plasma = test: determination of in-vitro anticoagulant effect in human plasma (APTT); format: biochemical; conditions: healthy human plasma, 37°C for 3 min
Protocol: After centrifugation, the plasma sample was pipetted and frozen (-80°C) for later use.
A proper amount of a compound was weighed and prepared into a 10-100 mM stock solution using 100% of DMSO (the specific concentration of the stock solution was determined based on the properties of the compound); and then working solutions with various concentrations (specifically: 1 µM, 3 µM and 10 µM, respectively) were prepared from the stock solution using the healthy human plasma as a solution and thoroughly mixed. After incubation at 37°C for 3 min, the sample was placed on an instrument (model: CS-2000I) to determine APTT.
GraphPad Prism software was used for analysis to calculate the APTT prolongation rate at each concentration.

Row | Compound | Food intake (g, mean±SD) [1] [g] | general condition of the rats ([1]; SD rats, 500 mg/kg PO once a day for 14 consecutive days) | food intake compared with the blank group ([1]; SD rats) | APTT prolongation rate (%) (human plasma; 1 µM) | APTT prolongation rate (%) (human plasma; 3 µM) | APTT prolongation rate (%) (human plasma; 10 µM)
1 | CC[C@@H](C(=O)Nc1ccc(C(N)=O)c(F)c1)n1cc(OC)c(-c2cc(Cl)ccc2-n2cc(C(F)(F)F)nn2)cc1=O [Comparative example 1, (S)-4-(2-(4-(5-chloro-2-(4-(trifluoromethyl)-1H-1,2,3-triazol-1-yl)phenyl)-5-methoxy-2-oxopyridin-1(2H)-yl)butanamido)-2-fluorobenzamide, reference compound] | 24.98 ± 0.92 | piloerection and hypoactivity were found in 1/3 or more of the rats | significantly reduced food intake | – | – | –
2 | CC[C@@H](C(=O)Nc1ccc(C(=O)NC)c(Cl)c1)n1cc(OC)c(-c2cc(Cl)ccc2-n2cc(C(F)(F)F)nn2)cc1=O [Compound 3, (S)-2-chloro-4-(2-(4-(5-chloro-2-(4-(trifluoromethyl)-1H-1,2,3-triazol-1-yl)phenyl)-5-methoxy-2-oxopyridin-1(2H)-yl)butanamido)-N-methylbenzamide] | – | – | – | 48.2 | 66.5 | 92.0
3 | CC[C@@H](C(=O)Nc1ccc(C(=O)OC)c(Cl)c1)n1cc(OC)c(-c2cc(Cl)ccc2-n2cc(C(F)(F)F)nn2)cc1=O [Compound 4, Methyl (S)-2-chloro-4-(2-(4-(5-chloro-2-(4-(trifluoromethyl)-1H-1,2,3-triazol-1-yl)phenyl)-5-methoxy-2-oxopyridin-1(2H)-yl)butanamido)benzoate] | – | – | – | 31.5 | 54.3 | 102.6
4 | CC[C@@H](C(=O)Nc1ccc(C(N)=O)c(C(F)(F)F)c1)n1cc(OC)c(-c2cc(Cl)ccc2-n2cc(C(F)(F)F)nn2)cc1=O [Compound 7, (S)-4-(2-(4-(5-chloro-2-(4-(trifluoromethyl)-1H-1,2,3-triazol-1-yl)phenyl)-5-methoxy-2-oxopyridin-1(2H)-yl)butanamido)-2-(trifluoromethyl)benzamide] | – | – | – | 37.9 | 52.4 | 73.4
5 | CC[C@@H](C(=O)Nc1ccc(C(N)=O)c(C(N)=O)c1)n1cc(OC)c(-c2cc(Cl)ccc2-n2cc(C(F)(F)F)nn2)cc1=O [Compound 8, (S)-4-(2-(4-(5-chloro-2-(4-(trifluoromethyl)-1H-1,2,3-triazol-1-yl)phenyl)-5-methoxy-2-oxopyridin-1(2H)-yl)butanamido)phthalamide] | – | – | – | 34.7 | 64.5 | 93.8
6 | CC[C@@H](C(=O)Nc1ccc(C(N)=O)c(Cl)c1)n1cc(OC)c(-c2cc(Cl)ccc2-n2cc(Cl)nn2)cc1=O [Compound 10, (S)-2-chloro-4-(2-(4-(5-chloro-2-(4-chloro-1H-1,2,3-triazol-1-yl)phenyl)-5-methoxy-2-oxopyridin-1(2H)-yl)butanamido)benzamide] | – | – | – | 38.6 | 56.0 | 98.9
7 | CC[C@@H](C(=O)Nc1ccc(C(N)=O)c(C(F)(F)F)c1)n1cc(OC)c(-c2cc(Cl)ccc2-n2cc(Cl)nn2)cc1=O [Compound 11, (S)-4-(2-(4-(5-chloro-2-(4-chloro-1H-1,2,3-triazol-1-yl)phenyl)-5-methoxy-2-oxopyridin-1(2H)-yl)butanamido)-2-(trifluoromethyl)benzamide] | – | – | – | 18.7 | 26.9 | 42.0
8 | CC[C@@H](C(=O)Nc1ccc(C(N)=O)c(F)c1F)n1cc(OC)c(-c2cc(Cl)ccc2-n2cc(C(F)(F)F)nn2)cc1=O [Compound 12, (S)-4-(2-(4-(5-chloro-2-(4-(trifluoromethyl)-1H-1,2,3-triazol-1-yl)phenyl)-5-methoxy-2-oxopyridin-1(2H)-yl)butanamido)-2,3-difluorobenzamide] | – | – | – | 23.2 | 33.5 | 81.1
9 | CC[C@@H](C(=O)Nc1c(Cl)cc(C(N)=O)cc1Cl)n1cc(OC)c(-c2cc(Cl)ccc2-n2cc(C(F)(F)F)nn2)cc1=O [Compound 15, (S)-3,5-dichloro-4-(2-(4-(5-chloro-2-(4-(trifluoromethyl)-1H-1,2,3-triazol-1-yl)phenyl)-5-methoxy-2-oxopyridin-1(2H)-yl)butanamido)benzamide] | – | – | – | 24.2 | 30.0 | 51.1
10 | CC[C@@H](C(=O)Nc1ccc(C(N)=O)cc1Cl)n1cc(OC)c(-c2cc(Cl)ccc2-n2cc(C(F)(F)F)nn2)cc1=O [Compound 16, (S)-3-chloro-4-(2-(4-(5-chloro-2-(4-(trifluoromethyl)-1H-1,2,3-triazol-1-yl)phenyl)-5-methoxy-2-oxopyridin-1(2H)-yl)butanamido)-benzamide] | – | – | – | 7.0 | 11.7 | 26.8
11 | CC[C@@H](C(=O)Nc1ccc(C(=O)NC)cc1F)n1cc(OC)c(-c2cc(Cl)ccc2-n2cc(C(F)(F)F)nn2)cc1=O [Compound 19, (S)-4-(2-(4-(5-chloro-2-(4-(trifluoromethyl)-1H-1,2,3-triazol-1-yl)phenyl)-5-methoxy-2-oxopyridin-1(2H)-yl)butanamido)-3-fluoro-N-methylbenzamide] | – | – | – | 24.2 | 44.0 | 77.1
12 | CC[C@@H](C(=O)Nc1cc(F)c(C(=O)NC)c(F)c1)n1cc(OC)c(-c2cc(Cl)ccc2-n2cc(C(F)(F)F)nn2)cc1=O [Compound 20, (S)-4-(2-(4-(5-chloro-2-(4-(trifluoromethyl)-1H-1,2,3-triazol-1-yl)phenyl)-5-methoxy-2-oxopyridin-1(2H)-yl)butanamido)-2,6-difluoro-N-methylbenzamide] | – | – | – | 19.2 | 49.2 | 98.6
13 | [2H]C([2H])([2H])Oc1cn([C@@H](CC)C(=O)Nc2ccc(C(N)=O)c(F)c2)c(=O)cc1-c1cc(Cl)ccc1-n1cc(C(F)(F)F)nn1 [Compound 21, (S)-4-(2-(4-(5-chloro-2-(4-(trifluoromethyl)-1H-1,2,3-triazol-1-yl)phenyl)-5-(methoxy-d3)-2-oxopyridin-1(2H)-yl)butanamido)-2-fluorobenzamide] | 27.08 ± 1.23 | – | essentially the same food intake as the blank group | – | – | –
14 | [2H]C([2H])([2H])Oc1cn([C@@H](CC)C(=O)Nc2ccc(C(N)=O)cc2F)c(=O)cc1-c1cc(Cl)ccc1-n1cc(C(F)(F)F)nn1 [Compound 23, (S)-4-(2-(4-(5-chloro-2-(4-(trifluoromethyl)-1H-1,2,3-triazol-1-yl)phenyl)-5-(methoxy-d3)-2-oxopyridin-1(2H)-yl)butanamide)-3-fluorobenzamide] | – | – | – | 48.8 | 81.2 | 168.0
15 | [2H]C([2H])([2H])Oc1cn([C@@H](CC)C(=O)Nc2ccc(C(=O)NC)cc2F)c(=O)cc1-c1cc(Cl)ccc1-n1cc(C(F)(F)F)nn1 [Compound 24, (S)-4-(2-(4-(5-chloro-2-(4-(trifluoromethyl)-1H-1,2,3-triazol-1-yl)phenyl)-5-(methoxy-d3)-2-oxopyridin-1(2H)-yl)butanamido)-3-fluoro-N-methylbenzamide] | – | – | – | 35.1 | 73.2 | 132.5
16 | [2H]C([2H])([2H])NC(=O)c1ccc(NC(=O)[C@@H](n2cc(OC([2H])([2H])[2H])c(-c3cc(Cl)ccc3-n3cc(C(F)(F)F)nn3)cc2=O)C([2H])([2H])C([2H])([2H])[2H])cc1F [Compound 30, (S)-4-(2-(4-(5-chloro-2-(4-(trifluoromethyl)-1H-1,2,3-triazol-1-yl)phenyl)-5-(methoxy-d3)-2-oxopyridin-1(2H)-yl)butanamido-3,3,4,4,4-d5)-2-fluoro-N-(methyl-d3)benzamide] | – | – | – | 48.1 | 79.0 | 138.4
17 | (S)-4-(2-(4-(5-chloro-2-(4-(trifluoromethyl)-1H-1,2,3-triazol-1-yl)phenyl)-5-methoxy-2-oxopyridin-1(2H)-yl)butanamido)-3,6-difluorobenzamide [Compound 14] | – | – | – | 0.9 | 9.1 | 18.5
